Measurements published in patent US20050197402A1 (priority 2004, published 2005).

Test: Modulated differential scanning calorimetry (MDSC/DSC), thermal stability / decomposition
Assay type: physicochemical
Conditions: for onset of decomposition: MDSC data
Excerpt: Differential Scanning Calorimetry (DSC) measures heat flow as a function of time or temperature and is used to study material transformation whether they be physical, such as phase changes, or chemical, such as decomposition. There are several parameters that can be obtained from a DSC thermogram. In the present work, the focus was on the onset temperature, the temperature of the peak minimum, and the peak width. DSC information is useful in understanding the purity and nature of material. For example, when a pure crystalline substance melts, the melting point is sharp. In DSC, that sharpness is shown by a narrow melting peak in the thermogram. If there are impurities or defects in the crystalline nature, the melting takes place at lower temperatures and over a larger range of temperatures. In DSC, the impurities are shown by a lower onset temperature and peak temperature, and a broader peak in the thermogram. When there are discrete impurities, they can melt at their melting points. In DSC, discrete impurities can be shown by additional peaks in the thermogram.
While a decomposition curve is usually broader and can be more complicated, some of the same phenomena are seen as with melting. Impurities and defects will cause broader and lower temperature peaks. Discrete impurities can show their own decomposition peaks.
These were made at slightly different stoichiometries. The onset temperature, the temperature at peak minimum, and the peak width are labeled.

[1] = modulated DSC thermogram, spray-dried polymorph of PMC2, K:Mg ratio less than 4.0

Compound | onset of decomposition | endothermic peak for decomposition: onset temperature [1] | endothermic peak for decomposition: peak minimum temperature [1] | endothermic peak for decomposition: peak width [1] | DSC decomposition behaviour (in words) (spray-dried sample in a vented pan, compared to sample dried in an oven or at room temperature)
magnesium citrate [reference compound] | 250 °C | – | – | – | –
O=C([O-])CC(O)(CC(=O)[O-])C(=O)[O-].O=C([O-])CC(O)(CC(=O)[O-])C(=O)[O-].[K+].[K+].[K+].[K+].[Mg+2] [PMC2, potassium magnesium citrate] | approximately 310 °C | greater than 320 °C | greater than 327 °C | less than 9 °C | –
O=C([O-])CC(O)(CC(=O)[O-])C(=O)[O-].O=C([O-])CC(O)(CC(=O)[O-])C(=O)[O-].[K+].[K+].[K+].[K+].[Mg+2] [PMC, potassium magnesium citrate] | – | – | – | – | decomposed at a much lower temperature and with a broader decomposition peak
O=C([O-])CC(O)(CC(=O)[O-])C(=O)[O-].[K+].[K+].[K+] [potassium citrate, reference compound] | 260 °C | – | – | – | –
